Patent US9533982B2, “Substituted bicyclic heteroaryl carboxamide analogs as mGluR5 negative allosteric modulators” (Vanderbilt University, priority 2014, dated 2017)

Target: mGluR4 (Homo sapiens, UniProt Q14833)
Assay: not given
Conditions: cited from earlier work

Sequence of mGluR4 (Q14833 33-912): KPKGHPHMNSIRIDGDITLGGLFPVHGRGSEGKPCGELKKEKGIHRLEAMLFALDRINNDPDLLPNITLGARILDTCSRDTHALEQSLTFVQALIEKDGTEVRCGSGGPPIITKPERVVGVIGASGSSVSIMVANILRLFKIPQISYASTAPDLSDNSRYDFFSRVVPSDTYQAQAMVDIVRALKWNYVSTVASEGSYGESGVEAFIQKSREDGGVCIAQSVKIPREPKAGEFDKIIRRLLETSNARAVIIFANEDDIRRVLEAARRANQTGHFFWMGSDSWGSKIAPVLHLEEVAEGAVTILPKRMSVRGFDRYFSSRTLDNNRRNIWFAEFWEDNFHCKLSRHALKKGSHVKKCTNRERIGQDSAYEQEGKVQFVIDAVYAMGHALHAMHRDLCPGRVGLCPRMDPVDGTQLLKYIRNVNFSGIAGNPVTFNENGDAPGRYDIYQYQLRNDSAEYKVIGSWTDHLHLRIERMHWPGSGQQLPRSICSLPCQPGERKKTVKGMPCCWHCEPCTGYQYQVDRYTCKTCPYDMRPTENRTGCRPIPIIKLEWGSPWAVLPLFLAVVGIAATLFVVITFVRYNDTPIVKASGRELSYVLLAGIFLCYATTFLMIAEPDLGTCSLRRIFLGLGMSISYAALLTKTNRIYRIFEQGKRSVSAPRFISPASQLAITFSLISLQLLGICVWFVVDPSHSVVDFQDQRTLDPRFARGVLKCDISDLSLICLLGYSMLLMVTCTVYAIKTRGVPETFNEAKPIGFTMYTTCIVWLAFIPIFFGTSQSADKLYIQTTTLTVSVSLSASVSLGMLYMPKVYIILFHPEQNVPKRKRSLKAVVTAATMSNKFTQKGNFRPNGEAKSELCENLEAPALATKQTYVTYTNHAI

| Compound | modulation of mGluR4 |
| --- | --- |
| Cc1cccc(C#Cc2ccccc2)n1 [MPEP, 2-methyl-6-(phenylethynyl)pyridine] | positive allosteric modulator |

Target: T1, cytochrome P450 1A2 (Homo sapiens, UniProt P05177)
T1 sequence (P05177 1-516): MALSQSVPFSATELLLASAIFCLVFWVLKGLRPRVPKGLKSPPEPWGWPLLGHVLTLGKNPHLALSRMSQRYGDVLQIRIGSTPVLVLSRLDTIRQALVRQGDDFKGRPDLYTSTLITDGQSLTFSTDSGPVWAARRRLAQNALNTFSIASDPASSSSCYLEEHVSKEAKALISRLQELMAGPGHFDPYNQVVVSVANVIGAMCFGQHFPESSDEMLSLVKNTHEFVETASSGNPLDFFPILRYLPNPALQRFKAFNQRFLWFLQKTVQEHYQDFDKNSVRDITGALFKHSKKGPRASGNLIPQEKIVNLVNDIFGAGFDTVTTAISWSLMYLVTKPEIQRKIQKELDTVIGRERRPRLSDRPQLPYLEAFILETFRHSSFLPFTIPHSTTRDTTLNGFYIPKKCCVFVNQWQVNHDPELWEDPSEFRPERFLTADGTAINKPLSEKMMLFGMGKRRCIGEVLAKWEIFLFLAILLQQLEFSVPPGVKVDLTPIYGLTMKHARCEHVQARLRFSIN
Assay: not given
Conditions: cited from earlier work

| Compound | inhibition of cytochrome P450 1A2 |
| --- | --- |
| Cc1nc(C#Cc2cccnc2)cs1 [MTEP, 3-[(2-methyl-1,3-thiazol-4-yl)ethynyl]pyridine] | potent inhibitor |

Target: T2, rat mGluR5 (Rattus norvegicus, UniProt P31424)
T2 construct: expressed in transfected cells
T2 sequence (P31424 21-1171 isoform P31424-2 limits assumed): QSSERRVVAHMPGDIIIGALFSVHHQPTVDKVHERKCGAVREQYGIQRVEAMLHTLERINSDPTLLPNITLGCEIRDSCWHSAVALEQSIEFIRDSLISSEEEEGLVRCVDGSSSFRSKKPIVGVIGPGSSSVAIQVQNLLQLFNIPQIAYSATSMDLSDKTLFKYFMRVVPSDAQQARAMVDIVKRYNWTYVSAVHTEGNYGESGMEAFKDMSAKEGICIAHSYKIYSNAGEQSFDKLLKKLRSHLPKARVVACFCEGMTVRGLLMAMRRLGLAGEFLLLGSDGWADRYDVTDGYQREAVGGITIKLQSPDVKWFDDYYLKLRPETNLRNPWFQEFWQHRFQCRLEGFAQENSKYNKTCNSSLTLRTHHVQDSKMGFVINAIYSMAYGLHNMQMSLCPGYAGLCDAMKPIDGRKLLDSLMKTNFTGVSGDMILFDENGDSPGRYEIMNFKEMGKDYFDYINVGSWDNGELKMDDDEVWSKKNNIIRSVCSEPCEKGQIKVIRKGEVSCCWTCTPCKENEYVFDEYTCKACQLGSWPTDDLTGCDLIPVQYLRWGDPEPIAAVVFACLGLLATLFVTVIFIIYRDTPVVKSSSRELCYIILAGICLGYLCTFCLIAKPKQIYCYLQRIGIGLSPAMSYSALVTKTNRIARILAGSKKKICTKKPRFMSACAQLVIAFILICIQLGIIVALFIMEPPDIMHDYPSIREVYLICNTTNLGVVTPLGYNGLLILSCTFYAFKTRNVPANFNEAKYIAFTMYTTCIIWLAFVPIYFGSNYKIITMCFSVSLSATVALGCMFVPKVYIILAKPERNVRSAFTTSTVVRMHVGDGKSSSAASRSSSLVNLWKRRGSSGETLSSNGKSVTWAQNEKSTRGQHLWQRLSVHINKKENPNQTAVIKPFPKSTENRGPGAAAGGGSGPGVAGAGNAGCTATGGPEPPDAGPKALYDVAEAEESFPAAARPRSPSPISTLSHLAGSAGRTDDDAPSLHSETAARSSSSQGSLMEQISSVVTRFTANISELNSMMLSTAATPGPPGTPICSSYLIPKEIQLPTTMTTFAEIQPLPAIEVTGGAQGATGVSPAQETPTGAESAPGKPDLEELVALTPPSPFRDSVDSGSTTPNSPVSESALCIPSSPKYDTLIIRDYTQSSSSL
Assay: mGluR5 activity, cell-based Ca2+ fluorescence (FDSS) assay in human embryonic kidney cells transfected with rat mGluR5
Conditions: HEK cells transfected with rat mGluR5; antagonism of EC80 glutamate response; single experiment or average of two where no error is given
Protocol: Human embryonic kidney (HEK) cells transfected with rat or human mGluR5 were plated in clear bottom assay plates for assay in a Functional Drug Screening System (FDSS). The cells were loaded with a Ca^2+-sensitive fluorescent dye (e.g., Fluo-4), and the plates were washed and placed in the FDSS instrument. Test compound was applied to cells 3 seconds after baseline readings were taken. Cells were incubated with the test compounds for 140 seconds and then stimulated with an EC20 concentration of an mGluR5 agonist (e.g., glutamate, 3,5-dihydroxyphenylglycine, or quisqualate); 60-80 seconds later an EC80 concentration of agonist was added and readings taken for an additional 40 seconds. Data were collected at 1 Hz. […] Concentration response curves were generated using a four parameter logistical equation.
The above described assay was operated in two modes. In the first mode (utilizing a triple add protocol), a range of concentrations of the present compounds were added to cells, followed by two single fixed concentrations of agonist (EC20 followed by EC80). If a compound acted as a potentiator, an EC50 value for potentiation of the EC20 response and a maximum extent of potentiation by the compound at this concentration of agonist was determined by non-linear curve fitting. If a compound acted as an antagonist, an IC50 value for antagonism of the EC80 response and a maximum extent of antagonism by the compound at this concentration of agonist was determined by non-linear curve fitting. In the second mode (utilizing a double add protocol), several fixed concentrations of the present compounds were added to various wells on a plate, followed by a range of concentrations of agonist for each concentration of present compound; the EC50 values for the agonist at each concentration of compound were determined by nonlinear curve fitting. A decrease in the EC50 value of the agonist with increasing concentrations of the present compounds (a leftward shift of the agonist concentration-response curve) is an indication of the degree of mGluR5 positive allosteric modulation at a given concentration of the present compound. An increase in the EC50 value of the agonist with increasing concentrations of the present compounds (a rightward shift of the agonist concentration response curve) is an indication of the degree of mGluR5 antagonism at a given concentration of the present compound. The second mode also indicates whether the present compounds also affect the maximum response to mGluR5 to agonists.
The mGluR5 activity was determined using the metabotropic glutamate receptor activity assays in human embryonic kidney cells as described herein, wherein the human embryonic kidney cells were transfected with rat mGluR5. The mGluR5 activity data for some compounds are shown as the average of at least three experiments with the standard error in these cases. If no error is indicated for the mGluR5 activity, the values given represent the results from a single experiment or the average of two experiments. The compounds in Table 1 were synthesized with methods identical or analogous to those shown herein. The requisite starting materials were commercially available, described in the literature, or readily synthesized by one skilled in the art of organic synthesis.

| IC50 [nM] | Compound |
| --- | --- |
| > 30000 | Cc1csc(NC(=O)c2cc(C(O)c3cncc(F)c3)cc3cccnc23)n1 (stereo not drawn) |
| 83 | O=C(Nc1ccc(F)cn1)c1cc(C(F)c2cncnc2)cc2cccnc12 (stereo not drawn) |
| 127 | Cc1csc(NC(=O)c2cc(C(F)c3cncnc3)cc3cccnc23)n1 (stereo not drawn) |
| 1620 | Cc1cccc(NC(=O)c2cc(C(=O)c3cncc(F)c3)cc3cccnc23)n1 |
| 3090 | Cc1cccc(NC(=O)c2cc(C(=O)c3cncnc3)cc3nccnc23)n1 |
| > 10000 | O=C(Nc1ccc(F)cn1)c1cc(C(F)c2cncnc2)cc2nccnc12 (stereo not drawn) |
| 696 | O=C(c1cncnc1)c1cc(C(=O)Nc2cccc(Cl)n2)c2ncccc2c1 |
| 890 | COC(c1cncnc1)c1cc(C(=O)Nc2ccc(F)cn2)c2ncccc2c1 (stereo not drawn) |
| 540 | CC(c1cncnc1)c1cc(C(=O)Nc2ccc(F)cn2)c2ncccc2c1 (stereo not drawn) |
| > 10000 | Cc1csc(NC(=O)c2cc(C(O)c3cncnc3)cc3cccnc23)n1 (stereo not drawn) |
| > 30000 | O=C(c1cncc(F)c1)c1cc(C(=O)Nc2ccc(Cl)cn2)c2ncccc2c1 |
| 148 | O=C(c1cncnc1)c1cc(C(=O)Nc2ccc(Cl)cn2)c2ncccc2c1 |
| > 30000 | O=C(c1cncc(F)c1)c1cc(C(=O)Nc2cccc(Cl)n2)c2ncccc2c1 |
| 73 | Cc1csc(NC(=O)c2cc(C(=O)c3cncnc3)cc3cccnc23)n1 |
| > 10000 | O=C(c1cncnc1)c1cc(C(=O)Nc2ccc(F)cn2)c2nccnc2c1 |
| 258 | Cc1csc(NC(=O)c2cc(C(C)c3cncnc3)cc3cccnc23)n1 (stereo not drawn) |
| 380 | Cc1csc(NC(=O)c2cc(C(=O)c3cncnc3)cc3nccnc23)n1 |
| 176 | O=C(c1cncnc1)c1cc(C(=O)Nc2ccc(Cl)cn2)c2nccnc2c1 |
| 645 | O=C(c1cncnc1)c1cc(C(=O)Nc2cccc(F)n2)c2ncccc2c1 |
| 444 | Cc1csc(NC(=O)c2cc(C(=O)c3cncc(F)c3)cc3cccnc23)n1 |
| 552 | COC(c1cncnc1)c1cc(C(=O)Nc2nc(C)cs2)c2ncccc2c1 (stereo not drawn) |
| 163 | Cc1cccc(NC(=O)c2cc(C(=O)c3cncnc3)cc3cccnc23)n1 |
| 109 | O=C(Nc1ccc(F)cn1)c1cc(C(F)(F)c2cncnc2)cc2cccnc12 |
| 106 | O=C(c1cncnc1)c1cc(C(=O)Nc2ccc(F)cn2)c2ncccc2c1 |

System: N-methyl-D-aspartate (NMDA) receptor
Assay: not given
Conditions: at higher concentrations; cited from earlier work

| Compound | inhibition of NMDA receptor activity |
| --- | --- |
| Cc1cccc(C#Cc2ccccc2)n1 [MPEP, 2-methyl-6-(phenylethynyl)pyridine] | directly inhibit |

System: marble burying activity in mice
Assay: not given
Conditions: literature reports; cited from earlier work

| Compound | effect in the marble burying model |
| --- | --- |
| CN1CC(=O)N=C1NC(=O)Nc1cccc(Cl)c1 [fenobam, 1-(3-chlorophenyl)-3-(1-methyl-4-oxo-4,5-dihydro-1H-imidazol-2-yl)urea] | effective |
| Cc1cccc(C#Cc2ccccc2)n1 [MPEP, 2-methyl-6-(phenylethynyl)pyridine] | effective |

System: not given
Assay: not given
Conditions: intravenous administration to rhesus monkeys; cited from earlier work

| Compound | clearance |
| --- | --- |
| Cc1nc(C#Cc2cccnc2)cs1 [MTEP, 3-[(2-methyl-1,3-thiazol-4-yl)ethynyl]pyridine] | efficiently cleared |
